Measured values taken from ChEMBL document CHEMBL1201862, “PubChem BioAssay data set” (2004).
Activity calls are given as the source filed them.

What was measured:
[1] = molecular target: T1, High affinity choline transporter 1 (Homo sapiens, UniProt Q9GZV3); experiment: human choline transporter blockers, potency – cell-based, 5-point CRC, membrane potential dye, dose response (AID 504840); format: functional
T1 sequence (Q9GZV3 whole entry): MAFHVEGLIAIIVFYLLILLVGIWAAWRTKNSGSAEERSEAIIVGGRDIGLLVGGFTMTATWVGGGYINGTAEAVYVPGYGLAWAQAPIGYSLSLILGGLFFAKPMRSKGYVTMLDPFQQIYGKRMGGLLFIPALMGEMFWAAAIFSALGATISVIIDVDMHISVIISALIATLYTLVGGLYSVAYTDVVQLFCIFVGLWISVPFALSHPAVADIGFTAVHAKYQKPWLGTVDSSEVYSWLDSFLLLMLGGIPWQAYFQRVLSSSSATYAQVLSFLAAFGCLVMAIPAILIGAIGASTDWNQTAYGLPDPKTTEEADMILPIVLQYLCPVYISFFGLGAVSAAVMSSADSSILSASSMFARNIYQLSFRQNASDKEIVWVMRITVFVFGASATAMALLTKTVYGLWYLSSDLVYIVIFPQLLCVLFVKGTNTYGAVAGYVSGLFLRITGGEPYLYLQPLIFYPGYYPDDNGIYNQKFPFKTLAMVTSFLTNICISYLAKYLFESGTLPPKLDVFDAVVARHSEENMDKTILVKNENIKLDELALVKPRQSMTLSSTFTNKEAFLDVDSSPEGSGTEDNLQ

Exodeoxyribonuclease V = Exodeoxyribonuclease V (Escherichia coli (strain K12), UniProt P04993+P07648+P08394); experiment: RecBCD inhibition via phage-restricted bacterial growth – absorbance, V66 E. coli, mutant T4 phage, counter-screen for AddAB inhibitor project, dose response (AID 492957); format: functional, cell-based, Escherichia coli str. K-12 substr. MG1655
[2] = Counterscreen for AddAB inhibitors: absorbance-based bacterial cell-based high throughput dose response assay for inhibitors of bacterial viability. [Related pubchem assays (depositor defined):AID435030, AID449728, AID449731, AID488942, AID488955, AID488956]; format: functional
Estrogen receptor = molecular target: T2, Estrogen receptor (Homo sapiens, UniProt P03372);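 also: potency for inhibiting coactivator peptide recruitment to the receptor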
T2 sequence (P03372 whole entry): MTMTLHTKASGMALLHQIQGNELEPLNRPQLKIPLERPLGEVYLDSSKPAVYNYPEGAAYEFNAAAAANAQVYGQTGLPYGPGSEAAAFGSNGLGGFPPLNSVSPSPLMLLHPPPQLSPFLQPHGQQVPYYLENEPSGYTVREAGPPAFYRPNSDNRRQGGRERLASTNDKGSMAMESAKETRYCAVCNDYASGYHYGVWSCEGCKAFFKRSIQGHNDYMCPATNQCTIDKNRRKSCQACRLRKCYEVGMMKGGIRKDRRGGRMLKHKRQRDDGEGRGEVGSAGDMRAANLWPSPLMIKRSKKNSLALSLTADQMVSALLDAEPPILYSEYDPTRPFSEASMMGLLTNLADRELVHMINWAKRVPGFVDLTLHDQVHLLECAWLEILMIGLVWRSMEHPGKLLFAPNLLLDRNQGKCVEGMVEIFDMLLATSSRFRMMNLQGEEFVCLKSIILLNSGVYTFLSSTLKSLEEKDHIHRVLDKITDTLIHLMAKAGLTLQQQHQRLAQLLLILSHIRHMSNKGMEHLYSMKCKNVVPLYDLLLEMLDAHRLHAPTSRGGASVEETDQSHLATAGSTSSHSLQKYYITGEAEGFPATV

Coagulation factor XII = molecular target: T3, Coagulation factor XII (Homo sapiens, UniProt P00748); format: functional;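 also: activated factor XIIa alpha cleaving a fluorogenic AMC peptide substrate; inhibitor potency from loss of enzyme activity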
T3 sequence (P00748 whole entry): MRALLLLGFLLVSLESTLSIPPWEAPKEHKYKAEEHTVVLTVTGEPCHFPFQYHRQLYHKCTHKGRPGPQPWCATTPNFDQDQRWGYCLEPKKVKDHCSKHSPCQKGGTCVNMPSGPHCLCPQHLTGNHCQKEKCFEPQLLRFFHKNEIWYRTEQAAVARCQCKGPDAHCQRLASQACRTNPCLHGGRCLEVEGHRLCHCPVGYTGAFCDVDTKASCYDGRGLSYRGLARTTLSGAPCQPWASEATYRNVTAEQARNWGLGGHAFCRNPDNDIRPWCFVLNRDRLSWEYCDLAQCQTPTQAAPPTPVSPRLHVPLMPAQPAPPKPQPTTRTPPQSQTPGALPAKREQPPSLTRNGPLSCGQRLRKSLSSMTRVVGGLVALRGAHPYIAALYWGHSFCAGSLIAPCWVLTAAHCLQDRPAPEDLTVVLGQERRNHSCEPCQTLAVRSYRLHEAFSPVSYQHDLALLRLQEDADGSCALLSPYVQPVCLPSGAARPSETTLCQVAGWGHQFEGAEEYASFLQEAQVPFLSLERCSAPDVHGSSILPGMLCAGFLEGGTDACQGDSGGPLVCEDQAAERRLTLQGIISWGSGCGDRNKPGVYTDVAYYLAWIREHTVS

[3] = test system: Streptococcus sp. 'group A'; experiment: Streptococcus pyogenes SK(-)GAS viability under kanamycin – luminescence, BacTiterGlo, confirmation, counter-screen for streptokinase expression inhibitor project, dose response (AID 1900); format: functional, organism-based
Streptokinase A = molecular target: T4, Streptokinase A (Streptococcus pyogenes serotype M1, UniProt P10520); experiment: viability-normalized secreted streptokinase activity reduction – plasminogen activation absorbance, OD405, dose response (AID 1914); format: functional, Streptococcus pyogenes M1 GAS;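 also: secreted streptokinase activity via plasminogen activation per viability signal from cell pellet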
T4 sequence (P10520 whole entry): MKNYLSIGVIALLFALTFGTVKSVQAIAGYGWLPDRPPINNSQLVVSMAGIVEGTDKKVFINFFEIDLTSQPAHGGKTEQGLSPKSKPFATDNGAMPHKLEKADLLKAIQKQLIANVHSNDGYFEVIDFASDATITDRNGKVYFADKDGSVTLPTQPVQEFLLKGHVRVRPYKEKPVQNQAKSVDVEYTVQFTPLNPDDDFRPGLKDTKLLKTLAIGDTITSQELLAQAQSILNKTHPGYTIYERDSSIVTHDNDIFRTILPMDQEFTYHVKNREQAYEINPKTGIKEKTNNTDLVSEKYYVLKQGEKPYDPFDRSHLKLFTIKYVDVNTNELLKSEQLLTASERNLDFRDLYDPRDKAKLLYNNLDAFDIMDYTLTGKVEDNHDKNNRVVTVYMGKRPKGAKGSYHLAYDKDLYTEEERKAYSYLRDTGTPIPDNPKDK

Streptococcus = experiment: GAS UMAA2166 growth inhibition – luminescence, BacTiterGlo, counter-screen for streptokinase expression inhibitor project, dose response (AID 1915); format: functional, organism-based;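 also: potency for reduction of bacterial viability or growth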
[4] = Luminescence Cell-Based Dose Retest to Confirm Inhibitors of Cancer Stem Cells. [Related pubchem assays (depositor defined):AID2717, AID2721]; format: functional; settings: Homo sapiens
[5] = molecular target: Intestinal-type alkaline phosphatase (Mus musculus, UniProt P24822); experiment: PubChem AID 488785; format: functional
[6] = molecular target: T5, Alkaline phosphatase, tissue-nonspecific isozyme (Homo sapiens, UniProt P05186); experiment: TNAP enzyme inhibition by screening hits, dose response, selectivity assay for mouse IAP inhibitor project, biochemical, human TNAP, uHTS hits (AID 488906); format: functional
T5 sequence (P05186 whole entry): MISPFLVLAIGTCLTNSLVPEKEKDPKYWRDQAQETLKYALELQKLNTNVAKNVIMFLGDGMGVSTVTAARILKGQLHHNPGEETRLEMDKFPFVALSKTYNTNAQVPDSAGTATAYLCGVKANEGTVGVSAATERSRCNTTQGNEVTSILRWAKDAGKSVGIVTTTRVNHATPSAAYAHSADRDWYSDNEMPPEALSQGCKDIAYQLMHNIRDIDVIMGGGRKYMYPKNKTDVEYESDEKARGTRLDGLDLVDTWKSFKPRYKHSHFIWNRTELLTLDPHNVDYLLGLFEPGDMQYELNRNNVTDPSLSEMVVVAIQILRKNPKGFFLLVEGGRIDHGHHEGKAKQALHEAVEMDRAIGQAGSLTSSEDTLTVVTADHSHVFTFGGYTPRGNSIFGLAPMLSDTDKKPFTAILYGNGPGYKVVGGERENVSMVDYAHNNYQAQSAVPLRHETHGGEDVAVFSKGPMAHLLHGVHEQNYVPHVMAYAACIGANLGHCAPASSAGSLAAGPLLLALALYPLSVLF

[7] = molecular target: Intestinal-type alkaline phosphatase (Homo sapiens, UniProt P09923); experiment: inhibition of human intestinal alkaline phosphatase – biochemical, dose response (AID 488876); format: functional
Nonstructural protein 1 = Nonstructural protein 1 (Influenza A virus, UniProt Q194T2); format: functional, Influenza A virus (A/California/07/2009(H1N1))
[8] = molecular target: T6, Tyrosine-protein phosphatase non-receptor type 7 (Homo sapiens, UniProt P35236); experiment: redox-active compounds inhibiting HePTP phosphatase – biochemical, fluorescence, mechanism study (AID 2068); format: functional
T6 sequence (P35236 whole entry): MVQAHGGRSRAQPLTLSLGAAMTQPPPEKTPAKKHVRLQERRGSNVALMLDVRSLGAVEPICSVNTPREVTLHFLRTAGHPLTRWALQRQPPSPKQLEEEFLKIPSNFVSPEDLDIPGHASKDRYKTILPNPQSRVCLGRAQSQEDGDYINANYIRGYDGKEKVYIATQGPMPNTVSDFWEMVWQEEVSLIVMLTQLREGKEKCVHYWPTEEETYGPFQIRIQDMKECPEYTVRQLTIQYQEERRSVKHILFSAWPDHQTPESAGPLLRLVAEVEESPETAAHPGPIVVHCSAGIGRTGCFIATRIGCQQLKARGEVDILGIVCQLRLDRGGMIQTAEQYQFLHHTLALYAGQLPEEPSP

[9] = molecular target: T7, Dual specificity protein phosphatase 6 (Rattus norvegicus, UniProt Q64346); format: functional;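 also: confirmatory in vitro dose-response testing of MKP-3 inhibition; recombinant His-tagged MKP-3 made in E. coli BL21 with OMFP substrate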
T7 sequence (Q64346 whole entry): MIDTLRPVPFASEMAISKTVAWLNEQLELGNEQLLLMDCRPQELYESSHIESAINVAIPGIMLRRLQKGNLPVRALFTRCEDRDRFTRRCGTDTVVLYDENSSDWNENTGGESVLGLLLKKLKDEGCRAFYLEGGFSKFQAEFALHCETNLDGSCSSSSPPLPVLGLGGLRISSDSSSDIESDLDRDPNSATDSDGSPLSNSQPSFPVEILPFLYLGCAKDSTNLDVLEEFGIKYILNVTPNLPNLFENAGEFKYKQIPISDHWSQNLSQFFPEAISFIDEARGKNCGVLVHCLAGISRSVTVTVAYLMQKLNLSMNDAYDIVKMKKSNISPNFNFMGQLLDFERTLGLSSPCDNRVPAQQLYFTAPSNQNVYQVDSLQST

Vero = experiment: cells; format: functional, cell-based; settings: Chlorocebus sabaeus
Tumor necrosis factor = Tumor necrosis factor (Homo sapiens, UniProt P01375); experiment: analog potency on TNFa NF-kB signaling – cell-based, revised, SAR follow-up (AID 2337); format: functional
[10] = molecular target: T8, Nucleotide-binding oligomerization domain-containing protein 1 (Homo sapiens, UniProt Q9Y239); experiment: blockers of NOD1 pathway activity – revised, SAR follow-up (AID 2333); format: functional
T8 sequence (Q9Y239 whole entry): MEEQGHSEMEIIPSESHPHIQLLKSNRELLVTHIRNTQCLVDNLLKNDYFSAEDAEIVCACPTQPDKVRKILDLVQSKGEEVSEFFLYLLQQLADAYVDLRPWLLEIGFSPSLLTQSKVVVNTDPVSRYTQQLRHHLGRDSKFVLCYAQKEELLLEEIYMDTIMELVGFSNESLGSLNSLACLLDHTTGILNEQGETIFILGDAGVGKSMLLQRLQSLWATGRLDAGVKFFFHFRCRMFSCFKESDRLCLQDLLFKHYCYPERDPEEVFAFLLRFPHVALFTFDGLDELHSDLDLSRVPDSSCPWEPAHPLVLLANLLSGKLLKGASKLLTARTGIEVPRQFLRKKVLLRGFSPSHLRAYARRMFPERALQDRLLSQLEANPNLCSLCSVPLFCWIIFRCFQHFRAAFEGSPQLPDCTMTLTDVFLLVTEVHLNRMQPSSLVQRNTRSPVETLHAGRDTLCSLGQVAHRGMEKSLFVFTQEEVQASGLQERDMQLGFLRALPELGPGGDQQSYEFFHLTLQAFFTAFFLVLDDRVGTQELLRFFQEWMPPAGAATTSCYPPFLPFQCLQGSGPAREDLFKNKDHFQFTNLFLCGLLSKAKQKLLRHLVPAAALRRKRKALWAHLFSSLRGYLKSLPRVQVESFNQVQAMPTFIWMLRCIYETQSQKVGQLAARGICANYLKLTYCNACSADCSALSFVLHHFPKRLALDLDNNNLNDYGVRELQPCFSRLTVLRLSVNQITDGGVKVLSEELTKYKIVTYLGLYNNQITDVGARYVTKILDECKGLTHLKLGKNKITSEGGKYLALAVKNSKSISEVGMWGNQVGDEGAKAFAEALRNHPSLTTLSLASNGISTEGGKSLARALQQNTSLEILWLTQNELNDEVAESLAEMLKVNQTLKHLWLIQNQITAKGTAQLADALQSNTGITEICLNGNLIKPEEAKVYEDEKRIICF

HEK293 = experiment: cells; settings: Homo sapiens;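 also: cells exposed to compound for 14 hours overnight before viability readout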
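For AC50 in this document: cells exposed to compound for roughly 70 hours or longer before luminescence read.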

Intestinal-type alkaline phosphatase (Homo sapiens, UniProt P09923), sequence (P09923 whole entry): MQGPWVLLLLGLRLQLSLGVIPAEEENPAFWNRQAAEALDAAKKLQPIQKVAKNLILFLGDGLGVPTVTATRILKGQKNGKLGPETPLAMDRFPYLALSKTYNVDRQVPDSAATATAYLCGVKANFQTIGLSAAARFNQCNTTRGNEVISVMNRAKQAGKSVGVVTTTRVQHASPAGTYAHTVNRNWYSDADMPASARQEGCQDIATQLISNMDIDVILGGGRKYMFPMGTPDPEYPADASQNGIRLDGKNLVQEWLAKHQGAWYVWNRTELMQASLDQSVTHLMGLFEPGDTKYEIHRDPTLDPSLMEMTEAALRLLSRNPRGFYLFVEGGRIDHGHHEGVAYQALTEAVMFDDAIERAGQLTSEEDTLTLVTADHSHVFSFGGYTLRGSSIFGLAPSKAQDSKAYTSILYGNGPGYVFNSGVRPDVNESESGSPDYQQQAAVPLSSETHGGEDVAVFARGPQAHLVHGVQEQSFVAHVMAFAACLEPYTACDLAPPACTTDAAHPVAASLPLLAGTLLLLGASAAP
Exodeoxyribonuclease V, sequence (P04993 whole entry): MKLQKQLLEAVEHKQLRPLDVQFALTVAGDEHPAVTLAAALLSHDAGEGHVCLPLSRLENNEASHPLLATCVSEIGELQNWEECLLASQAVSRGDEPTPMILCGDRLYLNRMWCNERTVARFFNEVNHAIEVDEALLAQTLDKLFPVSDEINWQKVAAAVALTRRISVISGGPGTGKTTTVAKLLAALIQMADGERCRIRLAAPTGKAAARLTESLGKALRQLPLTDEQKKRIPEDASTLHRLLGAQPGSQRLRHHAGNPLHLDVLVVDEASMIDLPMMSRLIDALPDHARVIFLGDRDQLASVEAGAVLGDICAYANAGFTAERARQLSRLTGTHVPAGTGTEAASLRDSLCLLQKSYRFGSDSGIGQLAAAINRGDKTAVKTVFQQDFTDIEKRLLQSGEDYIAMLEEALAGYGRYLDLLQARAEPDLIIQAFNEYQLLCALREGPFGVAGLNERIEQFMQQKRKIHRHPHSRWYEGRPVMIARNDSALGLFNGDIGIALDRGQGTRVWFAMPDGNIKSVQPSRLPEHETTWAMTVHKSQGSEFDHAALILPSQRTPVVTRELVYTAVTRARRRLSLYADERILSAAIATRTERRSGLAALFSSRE
Exodeoxyribonuclease V, sequence (P07648 whole entry): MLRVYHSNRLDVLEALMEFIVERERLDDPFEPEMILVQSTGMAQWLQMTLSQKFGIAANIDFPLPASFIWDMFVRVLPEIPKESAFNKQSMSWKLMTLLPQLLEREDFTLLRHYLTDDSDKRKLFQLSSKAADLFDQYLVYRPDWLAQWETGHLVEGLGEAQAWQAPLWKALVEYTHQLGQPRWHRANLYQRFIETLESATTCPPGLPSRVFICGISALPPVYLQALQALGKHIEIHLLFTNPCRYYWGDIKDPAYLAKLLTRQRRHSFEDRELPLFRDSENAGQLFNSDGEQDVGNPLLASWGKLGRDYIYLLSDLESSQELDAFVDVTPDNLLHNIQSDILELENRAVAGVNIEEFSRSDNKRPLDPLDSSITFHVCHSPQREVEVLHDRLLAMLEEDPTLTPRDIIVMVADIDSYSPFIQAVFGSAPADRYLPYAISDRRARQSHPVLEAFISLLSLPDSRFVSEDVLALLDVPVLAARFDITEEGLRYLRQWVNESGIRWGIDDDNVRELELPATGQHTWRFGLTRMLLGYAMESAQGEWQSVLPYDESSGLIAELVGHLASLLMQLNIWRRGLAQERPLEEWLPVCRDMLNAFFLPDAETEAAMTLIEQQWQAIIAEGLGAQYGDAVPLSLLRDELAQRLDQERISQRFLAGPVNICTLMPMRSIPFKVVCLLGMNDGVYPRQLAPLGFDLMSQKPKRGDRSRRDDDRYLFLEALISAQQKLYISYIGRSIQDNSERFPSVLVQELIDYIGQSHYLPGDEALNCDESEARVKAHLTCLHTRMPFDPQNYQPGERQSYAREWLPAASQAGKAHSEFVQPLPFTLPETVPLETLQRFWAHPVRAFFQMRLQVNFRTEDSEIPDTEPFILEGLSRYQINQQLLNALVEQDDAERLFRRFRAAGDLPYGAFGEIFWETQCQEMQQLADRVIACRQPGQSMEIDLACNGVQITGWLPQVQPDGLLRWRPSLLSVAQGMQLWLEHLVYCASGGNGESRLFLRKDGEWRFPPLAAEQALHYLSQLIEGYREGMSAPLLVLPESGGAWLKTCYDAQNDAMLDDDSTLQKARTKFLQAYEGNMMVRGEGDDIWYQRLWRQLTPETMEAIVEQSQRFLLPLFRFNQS
Exodeoxyribonuclease V, sequence (P08394 whole entry): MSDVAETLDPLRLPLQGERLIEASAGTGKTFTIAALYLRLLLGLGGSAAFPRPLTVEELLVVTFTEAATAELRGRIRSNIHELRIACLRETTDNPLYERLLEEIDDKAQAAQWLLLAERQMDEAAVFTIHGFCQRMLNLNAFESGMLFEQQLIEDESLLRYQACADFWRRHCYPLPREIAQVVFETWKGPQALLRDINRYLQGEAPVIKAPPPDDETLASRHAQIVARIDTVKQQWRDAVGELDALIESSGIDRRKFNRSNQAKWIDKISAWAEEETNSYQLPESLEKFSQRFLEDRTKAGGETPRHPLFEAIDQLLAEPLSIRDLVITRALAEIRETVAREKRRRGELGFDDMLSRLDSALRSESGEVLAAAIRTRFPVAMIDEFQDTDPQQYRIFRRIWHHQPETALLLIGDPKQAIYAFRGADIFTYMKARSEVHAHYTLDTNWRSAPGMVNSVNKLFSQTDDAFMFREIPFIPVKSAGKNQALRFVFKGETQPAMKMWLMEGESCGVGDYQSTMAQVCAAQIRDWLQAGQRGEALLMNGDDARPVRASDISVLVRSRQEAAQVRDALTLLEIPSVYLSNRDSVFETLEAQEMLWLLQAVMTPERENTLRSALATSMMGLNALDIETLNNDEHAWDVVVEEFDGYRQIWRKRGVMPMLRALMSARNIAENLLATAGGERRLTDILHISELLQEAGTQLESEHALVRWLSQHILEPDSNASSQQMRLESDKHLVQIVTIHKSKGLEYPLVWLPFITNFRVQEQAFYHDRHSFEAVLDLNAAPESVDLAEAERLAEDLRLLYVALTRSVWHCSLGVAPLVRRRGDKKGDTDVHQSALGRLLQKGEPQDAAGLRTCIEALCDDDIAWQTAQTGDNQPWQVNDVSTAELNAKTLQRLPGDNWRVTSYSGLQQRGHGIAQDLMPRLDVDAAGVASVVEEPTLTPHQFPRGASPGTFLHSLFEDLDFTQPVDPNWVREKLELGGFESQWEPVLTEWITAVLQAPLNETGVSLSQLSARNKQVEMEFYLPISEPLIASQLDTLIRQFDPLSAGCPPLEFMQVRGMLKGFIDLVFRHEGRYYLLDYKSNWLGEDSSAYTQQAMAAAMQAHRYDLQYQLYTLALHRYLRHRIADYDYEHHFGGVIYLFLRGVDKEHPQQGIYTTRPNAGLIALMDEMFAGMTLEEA
Intestinal-type alkaline phosphatase (Mus musculus, UniProt P24822), sequence (P24822 whole entry): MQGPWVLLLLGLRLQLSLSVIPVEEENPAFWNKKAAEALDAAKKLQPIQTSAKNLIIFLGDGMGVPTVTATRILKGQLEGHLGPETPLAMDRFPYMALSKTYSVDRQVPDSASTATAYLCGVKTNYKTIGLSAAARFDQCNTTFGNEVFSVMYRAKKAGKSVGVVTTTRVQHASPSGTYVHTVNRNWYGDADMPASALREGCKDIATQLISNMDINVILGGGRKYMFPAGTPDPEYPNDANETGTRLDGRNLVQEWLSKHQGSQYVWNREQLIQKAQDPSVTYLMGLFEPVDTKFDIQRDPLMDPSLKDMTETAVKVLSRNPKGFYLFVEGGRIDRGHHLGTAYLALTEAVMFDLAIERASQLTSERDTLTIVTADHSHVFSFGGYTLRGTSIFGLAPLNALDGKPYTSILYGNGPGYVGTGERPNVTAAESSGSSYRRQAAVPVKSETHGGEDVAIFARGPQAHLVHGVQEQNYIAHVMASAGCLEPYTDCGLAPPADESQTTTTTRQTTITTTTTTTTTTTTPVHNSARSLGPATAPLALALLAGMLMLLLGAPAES
Tumor necrosis factor, sequence (P01375 whole entry, the tested form may be a part): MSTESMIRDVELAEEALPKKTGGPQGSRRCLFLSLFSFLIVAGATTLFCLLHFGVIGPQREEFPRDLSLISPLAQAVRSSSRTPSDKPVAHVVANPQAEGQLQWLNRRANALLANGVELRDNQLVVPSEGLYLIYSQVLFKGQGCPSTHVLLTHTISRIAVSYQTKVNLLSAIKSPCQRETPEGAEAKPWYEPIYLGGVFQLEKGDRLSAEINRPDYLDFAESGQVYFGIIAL
Nonstructural protein 1, sequence (Q194T2 whole entry): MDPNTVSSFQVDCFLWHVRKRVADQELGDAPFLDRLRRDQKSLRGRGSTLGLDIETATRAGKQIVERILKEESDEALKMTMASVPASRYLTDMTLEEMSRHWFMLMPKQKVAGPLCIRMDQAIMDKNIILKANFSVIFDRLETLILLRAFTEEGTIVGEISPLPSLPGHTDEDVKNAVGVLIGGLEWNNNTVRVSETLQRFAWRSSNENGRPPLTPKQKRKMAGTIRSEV

CN(CCNC(=O)CN1CCN(Cc2ccccc2Cl)C1=O)Cc1ccccc1
IC50 [1]: 15.9 µM (active)

CCOc1ccc(NC(S)=NCc2nc3ccccc3[nH]2)cc1
IC50 (Exodeoxyribonuclease V): > 119 µM (inactive)
IC50 [2]: > 119 µM (inactive)

Cc1ccc(-c2nnc3n2N=C(c2ccc(Br)cc2)CS3)cc1
IC50 (Estrogen receptor): 42.3 µM (not active)
IC50 (Coagulation factor XII): > 50 µM (inactive)

S=C(NCCC(c1ccccc1)c1ccccc1)Nc1cccc(Cl)c1
EC50 [3]: 3.81 µM (active)
EC50 (Streptokinase A): 15.3 µM (active)
EC50 (Streptococcus): 10.5 µM (active)
AC50 [4]: 2.27 µM (active)
IC50 [5]: 6.96 µM (active)
IC50 [6]: 22.9 µM (active)
IC50 [7]: 57.7 µM (active)

COCc1ccc(CN2CCC(C(=O)Nc3cccc(-c4cccc(Cl)c4)c3)CC2)o1
IC50 [5]: 2.01 µM (active)
IC50 (Nonstructural protein 1): > 100 µM (active)
IC50 [6]: 17.8 µM (active)
IC50 [7]: > 100 µM (inactive)

COc1cc(C(=S)NC2CCCC2)ccc1O
IC50 [8]: 2.58 µM (active)
IC50 [9]: > 100 µM (inactive)

C/C(=N/OCO/N=C(/C)c1ccc(F)cc1)c1ccc(F)cc1
IC50 (Vero): > 12.5 µM (active)

C/C(=N\N=C(N)N)c1ccc(Cl)c(Cl)c1
IC50 [1]: 13.8 µM (active)

CCCCOc1ccc(Cc2cnc(N)nc2N)cc1
IC50 (Exodeoxyribonuclease V): 114 µM (inactive)
IC50 [2]: 85.2 µM (inactive)

Cc1ccc(-c2nc3ccccc3s2)cc1
IC50 (Tumor necrosis factor): > 20 µM (inactive)
IC50 [10]: > 20 µM (inactive)
IC50 (HEK293): > 20 µM (inactive)
